Reference: PMC10603899, “Reproducibility and Robustness of a Liver Microphysiological System PhysioMimix LC12 under Varying Culture Conditions and Cell Type Combinations” (Bioengineering, 2023)
Where a name gives a salt, the structure may show the parent alone.

How the values were obtained:
PHH (TF-HU8373) = experiment: Midazolam metabolism (1′-OH MDZ formation) in PhysioMimix LC-12, PHH monoculture; conditions: PhysioMimix LC12, HU8373 PHH, different cell combinations, 5 µM MDZ, 24 h
[1] = test system: PHHs (donor HU8373) + THP-1 cells; experiment: Immune-mediated toxicity, trovafloxacin ± LPS in PhysioMimix LC12, PHH + THP-1; assay type: cell-based; conditions: 48 h
Method: (§1) For evaluation of MDZ metabolism, cells were exposed on days 4–16 of culture to 5 µM MDZ (dissolved in methanol for the final concentration of 0.16% v/v). After drug addition, media were collected every 2, 6, and 24 h. After 24 h, the drug treatment media were replaced with fresh maintenance media. For the experiment with pesticide mixtures, we selected chemicals from the Agency for Toxic Substances and Disease Registry Substance Priority List, which contains compounds that are commonly detected at Superfund sites and are known to be hazardous to human health. A molar-equivalent mixture was created by combining all 20 pesticides and diluting them to a final concentration of 1 or 5 μM each in dimethyl sulfoxide (DMSO, final concentration 0.5% v/v). Media was collected 48 h after treatment for the analyses detailed below. For evaluation of immune-mediated toxicity with Trovafloxacin and LPS treatment, PHHs + THP-1 monocytes or PHHs + KCs were exposed on day 6 of culture to 25 or 100 µM of Trovafloxacin, with or without LPS. After 48 h, the drug treatment media were collected for biochemical assays detailed below.
(§2) Cell culture media was collected every time media was exchanged (Figure 1) and stored frozen at −80 °C until analyses for various biomarkers, including albumin, urea, lactate dehydrogenase (LDH), and human interleukin-6 (IL-6). The ELISA assays for albumin (E88-129, Bethyl Laboratories, Montgomery, TX, USA), urea (EIABUN, ThermoFisher), LDH (ab102526, Abcam, Cambridge, UK), and IL-6 (D6050, R&D Systems) were conducted using manufacturer’s instructions. For CYP3A4 activity, the P450 Glo 3A4 with Luciferin-IPA assay (V9001, Promega, Madison, WI, USA) was used; this is a live cell assay, and it was conducted according to the manufacturer’s instructions as follows. The Luciferin-IPA substrate was diluted 1:1000 in maintenance media and added to chips or wells 1 h prior to reading luminescence using a plate reader (SpectraMax iD3, Molecular Devices, San Jose, CA, USA). After the assay, the media was replaced.
(§3) The last series of experiments was conducted to examine whether a co-culture of PHHs and NPCs in the PhysioMimix LC12 could model immune-mediated effects. […] We examined two conditions of use: HU8373 PHH with either THP-1 cells or Kupffer cells (Figure 8). Treatments (25 or 100 μM trovafloxacin) were added on […] with or without LPS (1 μg/mL) (Figure 1H) to replicate a well-established model of immune-mediated hepatotoxicity. We examined LDH leakage as a marker of cytotoxicity, CYP3A4 activity, and IL-6 secretion into the media as a marker of pro-inflammatory response. […] Few effects on CYP3A4 were observed, albeit inter-experimental variability was high (Figure 8B).
Figure 8 Immune-mediated toxicity in the PhysioMimix LC12. Changes in LDH, CYP3A4, and IL-6 after 48 h trovafloxacin exposure with and without LPS in the PhysioMimix LC12 seeded with PHHs (donor HU8373) and non-parenchymal cells (THP-1 cells or Kupffer cells). (A) LDH leakage, (B) CYP3A4 activity, and (C) IL-6 release. Endpoints were normalized to the mean of the pretreatment samples (day 6 of the experiment). Data are plotted as box (interquartile range) and whiskers (min-max) with all individual values shown (n = 2–12). […] Brackets indicate statistical significance between groups at p < 0.05 by two-way ANOVA with Tukey’s multiple comparisons test.

[2] = test system: PHHs (donor HU8373) + Kupffer cells; experiment: Immune-mediated toxicity, trovafloxacin ± LPS in PhysioMimix LC12, PHH + Kupffer cells; assay type: cell-based; conditions: 48 h
Method: as §1, §2, §3
Figure 8 Immune-mediated toxicity in the PhysioMimix LC12. […]

[3] = 25 and 100 μM trovafloxacin + LPS (1 μg/mL)
[4] = 25 or 100 μM trovafloxacin with or without LPS (1 μg/mL)

Cc1ncc2n1-c1ccc(Cl)cc1C(c1ccccc1F)=NC2 [midazolam, Midazolam]
Midazolam metabolism over time in culture (PHH (TF-HU8373)): remained consistent over time

N[C@@H]1[C@H]2CN(c3nc4c(cc3F)c(=O)c(C(=O)O)cn4-c3ccc(F)cc3F)C[C@@H]12 [trovafloxacin, Trovafloxacin mesylate]
IL-6 secretion into the media ([1]; 100 μM trovafloxacin): Increases
Potentiating effect of LPS on trovafloxacin (IL-6 release) [1, 3]: not THP-1 cells
Effect on CYP3A4 activity [1, 4]: Few effects
LDH leakage as compared to pre-treatment levels [1, 4]: Significant increases
IL-6 secretion into the media ([2]; 100 μM trovafloxacin): Increases
Potentiating effect of LPS on trovafloxacin (IL-6 release) [2, 3]: significant potentiating effect
Effect on CYP3A4 activity [2, 4]: Few effects

Lipopolysaccharide [LPS]
IL-6 secretion into the media ([1]; LPS alone (1 μg/mL)): Increases
IL-6 secretion into the media ([2]; LPS alone (1 μg/mL)): Increases
